In patent US7935817B2, “Salt form and cocrystals of adefovir dipivoxil and processes for preparation thereof” (Apotex Pharmachem Inc., priority 2008, dated 2011):
In brackets after ≈: the same amount, converted by molar mass. Entries after “also recorded” stand apart in the source; their conditions may differ. Where two headings read alike, the source gives them in different places.

Key:
[1] = stability studies: HPLC purity after storage at 40° C./75% relative humidity; assay type: physicochemical
[2] = pH 7; cited from earlier work
[3] = cited from earlier work
[4] = after 1 week at 40° C./75% R.H.

SMILES: CC(C)(C)C(=O)OCOP(=O)(COCCn1cnc2c(N)ncnc21)OCOC(=O)C(C)(C)C.NC(=O)c1cccnc1 [ADE:NIC, adefovir dipivoxil:nicotinamide]
- decrease of HPLC purity [1, 4]: no decrease; also recorded: unchanged
- decrease of HPLC purity ([1]; after 4 weeks at 40° C./75% R.H.): 0.06%

SMILES: CC(C)(C)C(=O)OCOP(=O)(COCCn1cnc2c(N)ncnc21)OCOC(=O)C(C)(C)C [Adefovir dipivoxil, 9-[2-[[bis[(pivaloyloxy)methoxy]phosphinyl]-methoxy]ethyl]adenine]
- octanol/aqueous phosphate buffer partition coefficient (log p) [2]: 1.91
- aqueous solubility ([3]; pH 2.0): 19000 µg/mL (≈ 37.9 mM)
- aqueous solubility ([3]; pH 7.2): 400 µg/mL (≈ 0.798 mM)

SMILES: CC(C)(C)C(=O)OCOP(=O)(COCCn1cnc2c(N)ncnc21)OCOC(=O)C(C)(C)C [amorphous adefovir dipivoxil, 9-[2-[[bis[(pivaloyloxy)methoxy]phosphinyl]-methoxy]ethyl]adenine]
- decrease of HPLC purity [1, 4]: more than 1%
- decrease of HPLC purity ([1]; after 2 weeks at 40° C./75% R.H.): 2%
- decrease of HPLC purity per week ([1]; storage at 40° C./75% relative humidity, over 2 weeks): 1 % per week
